Reference: US9783573B2, “IAP antagonists” (BRISTOL-MYERS SQUIBB COMPANY, priority 2012, dated 2017)

Assays:
His-BIR3 (241-356, XIAP) = His-BIR3 (241-356, XIAP) (Homo sapiens (Human), UniProt P98170); assay: XIAP-BIR3/SMAC Homogeneous Time Resolved Fluorescence (HTRF) Assay; assay type: binding; details: fluorescein labeled SMAC peptide
Method: B. XIAP-BIR3/SMAC Homogeneous Time Resolved Fluorescence (HTRF) Assay
(§1) Assays were performed in black, flat-bottom, 384-well plates.

[1] = biological target: His-BIR2-3 (125-356, C202A/C213G, XIAP) (Homo sapiens (Human), UniProt P98170, C202A/C213G); assay: XIAP-BIR2-3 Dimeric SMAC Peptide Homogeneous Time Resolved Fluorescence (HTRF) Assay; assay type: binding; details: fluorescein labeled dimeric SMAC peptide
Method: D. XIAP-BIR2-3 Dimeric SMAC Peptide Homogeneous Time Resolved Fluorescence (HTRF) Assay
as §1

Row | SMILES | IC50 (His-BIR3 (241-356, XIAP)) [nM] | IC50 [1] [nM]
1 | CN[C@@H](C)C(=O)N[C@H](C(=O)N1C[C@@H](NC(=O)c2ccc(C(=O)Nc3ccc4c(c3)CN(C(=O)[C@@H](NC(=O)[C@H](C)NC)C(C)(C)SCC(=O)N(C)Cc3cccc(F)c3)[C@H](C(=O)N[C@@H]3CCCc5ccccc53)C4)cc2)C[C@H]1C(=O)N[C@@H]1CCCc2ccccc21)C(C)(C)C [Example 62, N^1-((3S,5S)-1-((S)-3,3-Dimethyl-2-((S)-2-(methylamino)propanamido)butanoyl)-5-(((R)-1,2,3,4-tetrahydronaphthalen-1-yl)carbamoyl)pyrrolidin-3-yl)-N^4-((S)-2-((R)-3-((2-((3-fluorobenzyl)(methyl)amino)-2-oxoethyl)thio)-3-methyl-2-((S)-2-(methylamino)propanamido)butanoyl)-3-(((R)-1,2,3,4-tetrahydronaphthalen-1-yl)carbamoyl)-1,2,3,4-tetrahydroisoquinolin-7-yl)terephthalamide] | 73 | 58
2 | CN[C@@H](C)C(=O)N[C@H](C(=O)N1C[C@@H](NC(=O)c2ccc(C(=O)Nc3ccc4c(c3)CN(C(=O)[C@@H](NC(=O)[C@H](C)NC)C(C)(C)SCC(=O)NCCO)[C@H](C(=O)N[C@@H]3CCCc5ccccc53)C4)cc2)C[C@H]1C(=O)N[C@@H]1CCCc2ccccc21)C(C)(C)C [Example 63, N^1-((3S,5S)-1-((S)-3,3-Dimethyl-2-((S)-2-(methylamino)propanamido)butanoyl)-5-(((R)-1,2,3,4-tetrahydronaphthalen-1-yl)carbamoyl)pyrrolidin-3-yl)-N^4-((S)-2-((R)-3-((2-((2-hydroxyethyl)amino)-2-oxoethyl)thio)-3-methyl-2-((S)-2-(methylamino)propanamido)butanoyl)-3-(((R)-1,2,3,4-tetrahydronaphthalen-1-yl)carbamoyl)-1,2,3,4-tetrahydroisoquinolin-7-yl)terephthalamide] | 17 | 5
3 | CN[C@@H](C)C(=O)N[C@H](C(=O)N1C[C@@H](NC(=O)c2ccc(C(=O)Nc3ccc4c(c3)CN(C(=O)[C@@H](NC(=O)[C@H](C)NC)C(C)(C)SCC(=O)N(C)C)[C@H](C(=O)N[C@@H]3CCCc5ccccc53)C4)cc2)C[C@H]1C(=O)N[C@@H]1CCCc2ccccc21)C(C)(C)C [Example 64, N^1-((3S,5S)-1-((S)-3,3-Dimethyl-2-((S)-2-(methylamino)propanamido)butanoyl)-5-(((R)-1,2,3,4-tetrahydronaphthalen-1-yl)carbamoyl)pyrrolidin-3-yl)-N^4-((S)-2-((R)-3-((2-(dimethylamino)-2-oxoethyl)thio)-3-methyl-2-((S)-2-(methylamino)propanamido)butanoyl)-3-(((R)-1,2,3,4-tetrahydronaphthalen-1-yl)carbamoyl)-1,2,3,4-tetrahydroisoquinolin-7-yl)terephthalamide] | 14 | 10
4 | CN[C@@H](C)C(=O)N[C@H](C(=O)N1C[C@@H](NC(=O)c2ccc(C(=O)Nc3ccc4c(c3)CN(C(=O)[C@@H](NC(=O)[C@H](C)NC)C(C)(C)SCCO)[C@H](C(=O)N[C@@H]3CCCc5ccccc53)C4)cc2)C[C@H]1C(=O)N[C@@H]1CCCc2ccccc21)C(C)(C)C [Example 67, N^1-((3S,5S)-1-((S)-3,3-Dimethyl-2-((S)-2-(methylamino)propanamido)butanoyl)-5-(((R)-1,2,3,4-tetrahydronaphthalen-1-yl)carbamoyl)pyrrolidin-3-yl)-N^4-((S)-2-((R)-3-((2-hydroxyethyl)thio)-3-methyl-2-((S)-2-(methylamino)propanamido)butanoyl)-3-(((R)-1,2,3,4-tetrahydronaphthalen-1-yl)carbamoyl)-1,2,3,4-tetrahydroisoquinolin-7-yl)terephthalamide] | 14 | 6
5 | CN[C@@H](C)C(=O)N[C@H](C(=O)N1C[C@@H](NC(=O)c2ccc(C(=O)Nc3ccc4c(c3)CN(C(=O)[C@@H](NC(=O)[C@H](C)NC)C(C)(C)SCc3ncc(C(C)(C)C)o3)[C@H](C(=O)N[C@@H]3CCCc5ccccc53)C4)cc2)C[C@H]1C(=O)N[C@@H]1CCCc2ccccc21)C(C)(C)C [Example 68, N^1-((S)-2-((R)-3-(((5-(tert-Butyl)oxazol-2-yl)methyl)thio)-3-methyl-2-((S)-2-(methylamino)propanamido)butanoyl)-3-(((R)-1,2,3,4-tetrahydronaphthalen-1-yl)carbamoyl)-1,2,3,4-tetrahydroisoquinolin-7-yl)-N^4-((3S,5S)-1-((S)-3,3-dimethyl-2-((S)-2-(methylamino)propanamido)butanoyl)-5-(((R)-1,2,3,4-tetrahydronaphthalen-1-yl)carbamoyl)pyrrolidin-3-yl)terephthalamide] | 260 | 160
